Experimental data: US20090029949A1, “GPCR Ligands Identified by Computational Modeling” (priority 2006, published 2009)

Experiments:
[1] = target: T1, S1P1 double mutant L3.43, 3.44G (Homo sapiens, UniProt P21453, L135G/L136G); test: [35S]GTPγS binding, S1P1 L3.43, 3.44G; format: biochemical; conditions: S1P-induced, S1P1 L3.43, 3.44G in RH7777 cells
T1 construct: expressed in transfected cells; host or cells: RH7777
Procedure: (§1) RH7777 and HEK-293 cells (ATCC, Manassas, Va.) were maintained in Dulbecco's modified minimal essential medium (DMEM) containing 10% fetal bovine serum (Hyclone, Logan, Utah). Cells (2×10^6) were transfected with 2 μg of plasmid DNA with Effectene (Qiagen, Valencia, Calif.) according to the manufacturer's instructions, for 24 h. Before ligand binding and receptor activation assays, the cells were washed twice with serum-free DMEM and serum-starved for at least 6 h.
(§2) S1P1 Receptor Activation Assays Receptor functional assays were performed in transiently transfected RH7777 cells by measuring S1P-activated [^35S]GTPγS binding as previously described (28).

S1P1 mutant C5.44I = target: T2, S1P1 mutant C5.44I (Homo sapiens, UniProt P21453, C206I); test: [35S]GTPγS binding, S1P1 C5.44I; format: biochemical; conditions: S1P-induced, S1P1 C5.44I in RH7777 cells
T2 construct: expressed in transfected cells; host or cells: RH7777 (transient, pcDNA3.1)
Procedure: as §1, §2

S1P1 mutant K5.38A = target: T3, S1P1 mutant K5.38A (Homo sapiens, UniProt P21453, K200A); test: [35S]GTPγS binding, S1P1 K5.38A; format: biochemical; conditions: S1P-induced, S1P1 K5.38A in RH7777 cells
T3 construct: expressed in transfected cells; host or cells: RH7777 (transient, pcDNA3.1)
Procedure: as §1, §2

S1P1 mutant F5.48G [2] = target: T4, S1P1 mutant F5.48G (Homo sapiens, UniProt P21453, F210G); test: [35S]GTPγS binding, S1P1 F5.48G; format: biochemical; conditions: S1P-induced, S1P1 F5.48G in RH7777 cells
T4 construct: expressed in transfected cells
Procedure: as §1, §2

S1P1 mutant T5.49S = target: T5, S1P1 mutant T5.49S (Homo sapiens, UniProt P21453, T211S); test: [35S]GTPγS binding, S1P1 T5.49S; format: biochemical; conditions: S1P-induced, S1P1 T5.49S in RH7777 cells
T5 construct: expressed in transfected cells; host or cells: RH7777 (transient, pcDNA3.1)
Procedure: as §1, §2

S1P1 mutant L5.52A = target: T6, S1P1 mutant L5.52A (Homo sapiens, UniProt P21453, L214A); test: [35S]GTPγS binding, S1P1 L5.52A; format: biochemical; conditions: S1P-induced, S1P1 L5.52A in RH7777 cells
T6 construct: expressed in transfected cells; host or cells: RH7777
Procedure: as §1, §2

S1P1 mutant V3.40T = target: T7, S1P1 mutant V3.40T (Homo sapiens, UniProt P21453, V132T); test: [35S]GTPγS binding, S1P1 V3.40T; format: biochemical; conditions: S1P-induced, S1P1 V3.40T in RH7777 cells
T7 construct: expressed in transfected cells; host or cells: RH7777 (transient, pcDNA3.1)
Procedure: as §1, §2

S1P1 mutant F5.48G [3] = target: T4, S1P1 mutant F5.48G; test: [32P]S1P radioligand binding, RH7777 cells, F5.48G; conditions: radioligand 50 nM, S1P1 F5.48G
Procedure: as §1
(§3) The S1P binding assays were done essentially as previously described (28). Transfected RH7777 cells (5×10^5) were incubated at 4° C. in 20 mM Tris-HCl (pH 7.5) binding buffer containing 100 mM NaCl, 15 mM NaF, protease inhibitor cocktail (Sigma-Aldrich), and 0.2 mg/ml essentially fatty-acid free BSA with 1 nM [^32P]S1P in 50 nM S1P for 40 min. Cells were centrifuged and washed twice in binding buffer. The final pellet was resuspended in 2:1 CHCl3/MeOH and the suspension was equilibrated in scintillation fluid overnight. Cell-bound radioactivity was measured by liquid scintillation counting using a Beckman LS5000 TA counter (Beckman Coulter, Irvine, Calif.). Specific binding was defined as the difference between total binding and non-specific binding (in the presence of 2-5 μM cold S1P). Standard errors were computed on the basis of triplicate samples from two simultaneous transfections.

[4] = target: T8, S1P1 double mutant L3.43, 3.44E (Homo sapiens, UniProt P21453, L135E/L136E); test: [35S]GTPγS binding, S1P1 L3.43, 3.44E; format: biochemical; conditions: S1P-induced, S1P1 L3.43, 3.44E in RH7777 cells
T8 construct: expressed in transfected cells; host or cells: RH7777
Procedure: as §1, §2

S1P1 mutant F5.48G [5] = target: T4, S1P1 mutant F5.48G; test: [32P]S1P competition binding, HEK-293 cells, F5.48G; conditions: S1P1 F5.48G
Procedure: (§4) For the competition assays, HEK-293 cells were used. Briefly, 4×10^5 cells were plated in 24-well dishes and allowed to adhere overnight. The cells were then transfected with 0.4 μg of the cDNA using Lipofectamine 2000 (Invitrogen) and the transfection proceeded for 48 h. After washing the cells twice with ice-cold binding buffer (20 mM Tris-HCl, pH 7.4 and 150 mM NaCl), 0.1 nM [^32P]S1P and competing concentrations of cold S1P (1 nM-10 μM), resuspended in binding buffer+4% BSA, were applied to the cells and incubated on ice for 30 min. After washing the cells twice with ice-cold binding buffer+0.4% BSA, the cells were lysed with 0.5% SDS and equilibrated in scintillation fluid. The samples were measured in triplicate.

S1P1 mutant W6.48A [6] = target: T9, S1P1 mutant W6.48A (Homo sapiens, UniProt P21453, W269A); test: [35S]GTPγS binding, S1P1 W6.48A; format: biochemical; conditions: S1P-induced, S1P1 W6.48A in RH7777 cells
T9 construct: expressed in transfected cells
Procedure: as §1, §2

WT S1P1 = WT S1P1 (Homo sapiens, UniProt P21453); test: Ligand-induced [35S]GTPγS binding, WT S1P1; format: biochemical; set-up: expressed in transfected cells; host or cells: RH7777 (transient, pcDNA3.1); conditions: S1P-induced, WT-S1P1 in RH7777 cells
Procedure: as §1, §2

[7] = Ligand-induced [35S]GTPγS binding, empty vector; format: biochemical; conditions: S1P-induced, empty vector in RH7777 cells
Procedure: as §1, §2

S1P1 mutant W6.48A [8] = target: T9, S1P1 mutant W6.48A; test: [32P]S1P competition binding, HEK-293 cells, W6.48A; conditions: S1P1 W6.48A
Procedure: as §4

S1P1 mutant T5.49G = target: T10, S1P1 mutant T5.49G (Homo sapiens, UniProt P21453, T211G); test: [35S]GTPγS binding, S1P1 T5.49G; format: biochemical; conditions: S1P-induced, S1P1 T5.49G in RH7777 cells
T10 construct: expressed in transfected cells; host or cells: RH7777 (transient, pcDNA3.1)
Procedure: as §1, §2

S1P1 mutant W6.48A [9] = target: T9, S1P1 mutant W6.48A; test: [32P]S1P radioligand binding, RH7777 cells, W6.48A; conditions: radioligand 50 nM, S1P1 W6.48A
Procedure: as §1, §3

[10] = competition with cold S1P, read-out: KD + s.d.

T9 sequence (P21453 whole entry W269A): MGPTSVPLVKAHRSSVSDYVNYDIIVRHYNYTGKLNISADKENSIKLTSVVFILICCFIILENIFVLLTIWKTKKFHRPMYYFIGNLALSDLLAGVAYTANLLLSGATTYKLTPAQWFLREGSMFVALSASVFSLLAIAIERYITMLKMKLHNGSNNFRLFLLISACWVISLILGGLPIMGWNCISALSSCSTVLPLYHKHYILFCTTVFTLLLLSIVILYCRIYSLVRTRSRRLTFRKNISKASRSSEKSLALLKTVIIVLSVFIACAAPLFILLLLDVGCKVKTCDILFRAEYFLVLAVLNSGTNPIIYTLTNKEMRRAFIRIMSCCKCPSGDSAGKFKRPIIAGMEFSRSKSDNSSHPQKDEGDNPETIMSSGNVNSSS
T4 sequence (P21453 whole entry F210G): as the sequence (P21453 whole entry W269A) above, with F210G, A269W counted along it
Chain of WT S1P1 (P21453 whole entry): as the sequence (P21453 whole entry W269A) above, with A269W counted along it
T1 sequence (P21453 whole entry L135G/L136G): as the sequence (P21453 whole entry W269A) above, with L135G, L136G, A269W counted along it
T10 sequence (P21453 whole entry T211G): as the sequence (P21453 whole entry W269A) above, with T211G, A269W counted along it
T5 sequence (P21453 whole entry T211S): as the sequence (P21453 whole entry W269A) above, with T211S, A269W counted along it
T3 sequence (P21453 whole entry K200A): as the sequence (P21453 whole entry W269A) above, with K200A, A269W counted along it
T7 sequence (P21453 whole entry V132T): as the sequence (P21453 whole entry W269A) above, with V132T, A269W counted along it
T8 sequence (P21453 whole entry L135E/L136E): as the sequence (P21453 whole entry W269A) above, with L135E, L136E, A269W counted along it
T2 sequence (P21453 whole entry C206I): as the sequence (P21453 whole entry W269A) above, with C206I, A269W counted along it
T6 sequence (P21453 whole entry L214A): as the sequence (P21453 whole entry W269A) above, with L214A, A269W counted along it

Q: Which results are given for `CCCCCCCCCCCCC/C=C/[C@@H](O)[C@@H](N)COP(=O)(O)O` [S1P, Sphingosine 1-phosphate]?
A: % WT Emax + s.d. [1]: ∞; EC50 + s.d. [1]: ∞; EC50 (S1P1 mutant C5.44I): 20.4 ± 2.1 nM; Emax (S1P1 mutant C5.44I; read-out: % WT Emax + s.d.): 37%; EC50 (S1P1 mutant K5.38A): 32.4 nM; Emax (S1P1 mutant K5.38A; read-out: % WT Emax + s.d.): 97%; % WT Emax + s.d. (S1P1 mutant F5.48G [2]): ∞; EC50 + s.d. (S1P1 mutant F5.48G [2]): ∞; EC50 (S1P1 mutant T5.49S): 6.6 nM; Emax (S1P1 mutant T5.49S; read-out: % WT Emax + s.d.): 168%; % WT Emax + s.d. (S1P1 mutant L5.52A): ∞; EC50 + s.d. (S1P1 mutant L5.52A): ∞; EC50 (S1P1 mutant V3.40T): 13.8 ± 1.8 nM; Emax (S1P1 mutant V3.40T; read-out: % WT Emax + s.d.): 137%; [32P]S1P binding relative to WT (S1P1 mutant F5.48G [3]): > 50 % of the WT; % WT Emax + s.d. [4]: ∞; EC50 + s.d. [4]: ∞; Bmax (S1P1 mutant F5.48G [5]): 2580 fmol; Kd (S1P1 mutant F5.48G [5]; [10]): 20.2 nM; EC50 (S1P1 mutant W6.48A [6]): 13 ± 4.2 nM; Emax (S1P1 mutant W6.48A [6]; read-out: % WT Emax + s.d.): 34 ± 1.5%; % WT Emax + s.d. (WT S1P1): 100 + 9.13 % WT; EC50 (WT S1P1): 1.4 ± 0.7 nM; % WT Emax + s.d. [7]: ∞; EC50 + s.d. [7]: ∞; Bmax (S1P1 mutant W6.48A [8]): 2080 fmol; Kd (S1P1 mutant W6.48A [8]; [10]): 38.5 nM; EC50 (S1P1 mutant T5.49G): 5.4 nM; Emax (S1P1 mutant T5.49G; read-out: % WT Emax + s.d.): 107%; [32P]S1P binding relative to WT (S1P1 mutant W6.48A [9]): > 50 % of the WT
